Laboratory results: US8778616B2, “Method of using CCR3 binding agents to detect choroidal neovascularization” (University of Kentucky Research Foundation, priority 2009, dated 2014)

B1: CCL24: CCR3 ligand eotaxin-2, recombinant human (Peprotech) (protein, UniProt O00175 27-119, looked up)
C-C motif chemokine 24: VVIPSPCCMFFVSKRIPENRVVSYQLSSRSTCLKAGVIFTTKKGQQFCGDPKQEWVQRYMKNLDAKQKKASPRARAVAVKGPVQRYPGNQTTC

Legend:
Rac-1 = Rac-1 activation pull-down assay; format: cell-based; settings: human CECs; CCL11 10 ng/ml, CCL24 100 ng/ml, CCL26 2 μg/ml; versus unstimulated (0 s) cells
Experimental: Rac-1 activation. Human CECs were cultured in EGM-2 MV containing 5% FBS. Prior to starting the assay, cells were serum starved with basal medium (MCDB131) supplemented with 1% FBS overnight. Cells were stimulated for designated times with Eotaxin-1, 2 and 3 (10 ng/ml, 100 ng/ml and 2 μg/ml respectively). Equal amounts of lysates (500 μg) were incubated with GST-Pak1-PBD agarose beads (Upstate) to pull-down active GTP-bound Rac-1 at 4° C. for 1 h with rotation. The samples were subsequently analyzed for bound Rac-1 by western blot analysis using an anti-Rac-1 antibody (Upstate).

human CECs [1] = assay: F-actin polymerization assay; format: cell-based; settings: CCL11 10 ng/ml, CCL24 100 ng/ml, CCL26 2 μg/ml; versus PBS
Experimental: F-actin Polymerization Assay. Human CECs were seeded in black-walled 96-well plates and grown to 70-80% confluence in fully supplemented EGM-2MV. Cultures were serum starved overnight in basal media and then stimulated with recombinant human eotaxin-1 (10 ng/ml), eotaxin-2 (100 ng/ml), eotaxin-3 (2 μg/ml) (Peprotech), or vehicle control (PBS). At 0, 10, 30, 60, or 120 sec time-points, cells were fixed in 3.7% paraformaldehyde for 10 min, washed, permeabilized in PBS with 0.1% Triton-X, and then stained with rhodamine labelled Phalloidin (1:200, Invitrogen) per manufacturer's recommendations. Plates were analyzed on a fluorescent plate reader (Synergy 4, Biotek) followed by fluorescent microscopy (Nikon E800).

human CECs [2] = assay: Proliferation assay (BrdU ELISA); format: cell-based; settings: 24 h stimulation; CCL11 10 ng/ml, CCL24 100 ng/ml, CCL26 2 μg/ml; versus BSA
Experimental: Proliferation assay. Human CECs were synchronized for cell cycle state by first cultivating them in EGM2-MV media (Lonza) supplemented with 10% FBS (Gibco) to achieve complete confluence and then by overnight serum starvation in MCDB131 media (Gibco) with 0.1% FBS. They were passaged to 96-well plates at a density of 5,000 cells per well, followed by stimulation for 24 h with eotaxin-1, 2 or 3 (10 ng, 100 ng and 2 μg per ml, respectively; Peprotech) in MCDB131 media with 0.1% FBS. After 24 h, cell viability was measured with BrdU ELISA (Chemicon) according to manufacturer's instructions.

CCR3 = CCR3 bioimaging: fundus angiography after intravenous injection; format: in vivo, mouse; settings: wild-type and Ccl2−/−×Ccr2−/− mice
Experimental: CCR3 bioimaging. F(ab) fragments were created from monoclonal IgG2a antibody raised against the extracellular domain of murine CCR3 (R&D Systems) and an isotype rat IgG2a (R&D Systems) using a commercially available papain-based kit (Pierce). Recovered fragments were conjugated with quantum dots (Invitrogen, QDot-800) and resuspended in sterile PBS. Ccl2^−/−×Ccr2^−/− mice were administered 100 μg of tagged CCR3 F(ab) or isotype F(ab) via tail vein injection after acquiring baseline fluorescent imaging using a Topcon retinal camera (TRC-50IX). Serial images were then acquired at 1, 4, and 12 h after which eyes were harvested and frozen in OCT for immunofluorescent analyses. Retinal images were analyzed (ImageNet, Topcon) by comparison to baseline and fluorescein angiographic data. Hyperfluorescent areas were then cropped, equally thresholded, and pseudocolored (Photoshop CS3, Adobe). Sections from QDot-conjugated CCR3 or rat IgG2a isotype F(ab) injected animals were fixed in 4% paraformaldehyde and blocked with 5% normal donkey serum/5% goat serum in PBS, stained with rat anti-mouse CD31 (BD Biosciences) and either rabbit anti-mouse CCR3 (Santa Cruz) or rabbit anti-Ki67 (Abcam) followed by appropriate fluorescent secondary antibodies (Alexa Fluor 488/594, Invitrogen), and evaluated by confocal laser scanning microscopy (Leica SP-5).

laser-induced CNV [3] = assay: Laser-induced CNV in Ccr3−/− mice (specificity of CCR3 blockade); format: in vivo, mouse; settings: n=5, P>0.1
Experimental: (§1) Mouse model of CNV. Laser photocoagulation (OcuLight GL, Iridex Corporation) was performed on mouse eyes to induce CNV, and CNV volumes were measured 7 days after injury by scanning laser confocal microscope (TCS SP, Leica) as previously described (Kleinman, et al., Nature. 452, 591-597 (2008)). Drug injections. Rat IgG2a neutralizing antibody against mouse CCR3 (R&D Systems), control rat IgG2a (Serotec), goat neutralizing antibody against mouse CCL11 (R&D Systems), goat neutralizing antibody against mouse CCL24 (R&D Systems), control goat IgG (Jackson Immunoresearch), or (S)-Methyl-2-naphthoylamino-3-(4-nitrophenyl)propionate (SB328437; Calbiochem) dissolved in DMSO were injected into the vitreous humor using a 33-gauge double-calibre needle (Ito Corporation) once, immediately after laser injury as previously described (Kleinman, et al., (2008) supra).
Animals. All animal experiments were in accordance with the guidelines of the University of Kentucky IACUC and the Association for Research in Vision and Ophthalmology. C57BL/6J and Kit^W-v/Kit^W-v mice were purchased from The Jackson Laboratory. […]

retina = assay: Retinal toxicity by fundus imaging and electroretinography; format: in vivo; settings: wild-type mice, fundus imaging and electrophysiological function; anti-VEGF-A: repeated intravitreous administration
Experimental: Electroretinography. Mice were dark adapted overnight and then anesthetized. Both eyes were positioned within a ColorBurst Ganzfeld stimulator (Diagnosys). Espion software (Diagnosys) was used to program a fully automated flash intensity series from which retinal responses were recorded.

laser-induced CNV [4] = assay: Laser-induced CNV in wild-type mice; format: in vivo, mouse; settings: single intraocular administration after laser injury, versus isotype IgG or vehicle
Experimental: as §1
Drug injections. […]

Row | Molecule | active (GTP-bound) Rac-1 GTPase levels (Rac-1) | actin polymerization in human CECs (human CECs [1]) | human CEC proliferation (human CECs [2]) | hyperfluorescence indicative of CNV on fluorescein angiography (CCR3) | CNV in Ccr3−/− mice (laser-induced CNV [3]) | retinal toxicity (retina) | laser-induced CNV (effect in words) (laser-induced CNV [4]) | laser-induced CNV (effect in words) (laser-induced CNV [4]; listed as (S)-Methyl-2-naphthoylamino-3-(4-nitrophenyl)propionate)
1 | CCL26: CCR3 ligand eotaxin-3, recombinant human (Peprotech) | increased levels of activate Rac-1 GTPase | induced actin polymerization | induced human CEC proliferation | – | – | – | – | –
2 | O=C([O-])c1ccccc1-c1c2ccc(=O)cc-2oc2cc([O-])ccc12.[Na+].[Na+] [sodium fluorescein] | – | – | – | no areas of hyperfluorescence indicative of CNV | – | – | – | –
3 | (S)-Methyl-2-naphthoylamino-3-(4-nitrophenyl)propionate [SB328437] | – | – | – | – | 109±16 % of control | neither CCR3 Ab nor CCR3 receptor antagonist induced retinal toxicity | reduced | suppressed laser injury-induced CNV in wild-type mice in a dose-dependent fashion
4 | CCL11: CCR3 ligand eotaxin-1, recombinant human (Peprotech) | increased levels of activate Rac-1 GTPase | induced actin polymerization | induced human CEC proliferation | – | – | – | – | –
5 | B1 | increased levels of activate Rac-1 GTPase | induced actin polymerization | induced human CEC proliferation | – | – | – | – | –
